Data reported in patent publication US20190133128A1, “Fungicidal pyridazinones” (FMC Corporation, priority 2017, published 2019).
Marks after values point to notes of the source that are not given here.

How the values were obtained:
Assay type in all cases: in vivo
[1] = system: Botrytis cinerea; assay: Test C: preventive spray on tomato seedlings, gray mold, visual disease rating
Source text: (§1) General protocol for preparing test solutions for Tests AG: the test compounds were first dissolved in acetone in an amount equal to 3% of the final volume and then suspended at the desired concentration (in ppm) in acetone and purified water (50/50 mix by volume) containing the surfactant PEG400 (polyhydric alcohol esters). The resulting test suspensions were then used in Tests AG. Compounds were sprayed at a concentration of 250 ppm or other indicated rate to the point of run-off on the test plants. The test solution was sprayed to the point of run-off on tomato seedlings. […] A dash (-) indicates no test results.

[2] = system: Phytophthora infestans; assay: whole plant or invertebrate; details: for Test D disease control rating: tomato seedlings
[3] = system: Puccinia recondita f. sp. tritici; assay: Test F: preventive spray on wheat seedlings, wheat leaf rust, visual disease rating
Source text: as §1, with “wheat” for “tomato”, “seedlings. The following day the seedlings were inoculated with a spore suspension of Puccinia recondita f. sp. tritici;” for “seedlings.”

[4] = system: Erysiphe graminis f. sp. tritici; assay: Test G: preventive spray on wheat seedlings, wheat powdery mildew, visual disease rating
Source text: as §1, with “wheat” for “tomato”

[5] = system: Phakopsora pachyrhizi; assay: Test A: preventive spray on soybean seedlings, Asian soybean rust, visual disease rating; details: 250 ppm, 100 = 100% disease control, 0 = no control
[6] = system: Zymoseptoria tritici; assay: Test E: preventive spray on wheat seedlings, wheat leaf blotch, visual disease rating
Source text: as §1, with “wheat” for “tomato”

[7] = 250 ppm, 100 = 100% disease control, 0 = no control

Compound | Test C disease control rating ([1]; 200 ppm) | Test D disease control rating ([2]; 200 ppm) | Test F disease control rating ([3]; 200 ppm) | Test G disease control rating ([4]; 200 ppm) | also measured
CN(C(=O)c1c(O)cnn(C)c1=O)c1ccc(Cl)cc1 [Compound 23] | – | – | – | – | Test C disease control rating ([1]; 40 ppm): 0%; Test D disease control rating ([2]; 40 ppm): 0%; Test F disease control rating ([3]; 40 ppm): 0%; Test G disease control rating ([4]; 40 ppm): 0%
Cn1ncc(O)c(C(=O)Nc2ccc(C(F)(F)F)cc2F)c1=O [Compound 50, N-[2-Fluoro-4-(trifluoromethyl)phenyl]-2,3-dihydro-5-hydroxy-2-methyl-3-oxo-4-pyridazinecarboxamide] | – | – | – | – | pest or weed control at 250 ppm ([5]; Phakopsora pachyrhizi): 0%; pest or weed control at 250 ppm ([1]; Botrytis cinerea, 250 ppm, 100 = 100% disease control, 0 = no control): 85%; pest or weed control at 250 ppm ([2]; Phytophthora infestans, in Solanum lycopersicum, read-out: Test D disease control rating): 99%; pest or weed control at 250 ppm ([6]; Zymoseptoria tritici, 250 ppm, 100 = 100% disease control, 0 = no control): 98%; pest or weed control at 250 ppm ([3]; Puccinia recondita, 250 ppm, 100 = 100% disease control, 0 = no control): 100%; pest or weed control at 250 ppm ([4]; Blumeria graminis, 192 h, 250 ppm, 100 = 100% disease control, 0 = no control): 98%
Cn1ncc(O)c(C(=O)Nc2cccc(-c3ccc(Cl)cc3)c2)c1=O [Compound 44] | – | – | – | – | Test A disease control rating [5]: 0%; Test C disease control rating [1, 7]: 0%; Test D disease control rating [2, 7]: 0%; Test E disease control rating [6, 7]: 0%; Test F disease control rating [3, 7]: 86%; Test G disease control rating [4, 7]: 0%
Cn1ncc(O)c(C(=O)Nc2cccc(Cl)c2)c1=O [Compound 11] | 48% | 0% | 95% | 31% | –
Cn1ncc(O)c(C(=O)NCc2ccc(Cl)cc2)c1=O [Compound 22] | – | – | – | – | Test C disease control rating ([1]; 40 ppm): 0%; Test D disease control rating ([2]; 40 ppm): 0%; Test F disease control rating ([3]; 40 ppm): 41%; Test G disease control rating ([4]; 40 ppm): 0%
Cn1ncc(O)c(C(=O)Nc2cccc(F)c2)c1=O [Compound 25] | 0% | 0* % | 89% | 0% | –
Cn1ncc(OS(C)(=O)=O)c(C(=O)Nc2ncc(Cl)cn2)c1=O [Compound 95] | – | – | – | – | Test A disease control rating [5]: 73%; Test C disease control rating [1, 7]: 0%; Test D disease control rating [2, 7]: 0%; Test F disease control rating [3, 7]: 68%; Test G disease control rating [4, 7]: 0%
Cn1ncc(O)c(C(=O)Nc2ccc3c(c2)OC(F)(F)O3)c1=O [Compound 1] | 0% | 0% | 98% | 40% | –
Cn1ncc(O)c(C(=O)Nc2ccc(Cl)cc2C#N)c1=O [Compound 24] | 99% | 0% | 91% | 0% | –
CCn1ncc(O)c(C(=O)Nc2ccc(Cl)nc2)c1=O [Compound 12] | – | 0% | 91% | 93% | –
Cn1ncc(O)c(C(=O)Nc2ccc(Cl)c(Cl)c2)c1=O [Compound 17] | 0% | 57% | 99% | 0% | –
Cn1ncc(O)c(C(=O)Nc2cccc(C#N)c2)c1=O [Compound 15] | 16% | 79% | 91% | 0% | –
Cc1cc(Cl)ccc1NC(=O)c1c(O)cnn(C)c1=O [Compound 16] | 0% | 91% | 99% | 45% | –
Cn1ncc(O)c(C(=O)Nc2ccc(Cl)cc2)c1=O [Compound 9] | 0% | 0% | 99% | 96% | –
Cn1ncc(OS(C)(=O)=O)c(C(=O)Nc2ccc(C(F)(F)F)nc2)c1=O [Compound 94] | – | – | – | – | Test A disease control rating [5]: 77%; Test C disease control rating [1, 7]: 0%; Test D disease control rating [2, 7]: 0%; Test F disease control rating [3, 7]: 99%; Test G disease control rating [4, 7]: 52%
Cn1ncc(O)c(C(=O)Nc2ccc(Cl)c(C(F)(F)F)c2)c1=O [Compound 18] | 0% | 0% | 83% | 46% | –
O=C(Nc1ccc(Cl)nc1)c1c(O)cnn(-c2ccccc2)c1=O [Compound 14] | 90% | 0% | 98% | 0% | –
Cn1ncc(O)c(C(=O)Nc2cccc3cccnc23)c1=O [Compound 19] | 0% | 0% | 96% | 0% | –
CCn1ncc(O)c(C(=O)Nc2ccc(OC(F)(F)F)cc2)c1=O [Compound 5] | 10% | 50% | 84% | 32% | Test E disease control rating ([6]; 200 ppm): 0%
Cn1ncc(O)c(C(=O)Nc2ccccc2Cl)c1=O [Compound 10] | 99% | 0% | 97% | 0% | –
Cc1nn(C)c(=O)c(C(=O)Nc2ccc(OC(F)(F)F)cc2)c1O [Compound 3] | 0% | 0% | 0% | 37% | Test E disease control rating ([6]; 200 ppm): 0%
Cn1ncc(O)c(C(=O)Nc2ccc(OC(F)(F)F)cc2F)c1=O [Compound 48] | – | – | – | – | Test C disease control rating [1, 7]: 62%; Test D disease control rating [2, 7]: 97%; Test E disease control rating [6, 7]: 96%; Test F disease control rating [3, 7]: 99%; Test G disease control rating [4, 7]: 97%
CCCn1ncc(O)c(C(=O)Nc2ccc(OC(F)(F)F)cc2)c1=O [Compound 4] | 0% | 99% | 95% | 97% | Test E disease control rating ([6]; 200 ppm): 0%
Cn1ncc(OS(=O)(=O)c2ccccc2)c(C(=O)Nc2ccc(OC(F)(F)F)cc2)c1=O [Compound 107] | – | – | – | – | Test C disease control rating [1, 7]: 0%; Test D disease control rating [2, 7]: 96%; Test E disease control rating [6, 7]: 71%; Test F disease control rating [3, 7]: 100%; Test G disease control rating [4, 7]: 98%
Cn1ncc(O)c(C(=O)Nc2c(F)cccc2F)c1=O [Compound 20] | 0% | 0% | 0% | 0% | –
COc1cnn(C)c(=O)c1C(=O)Nc1ccc(Cl)cc1 [Compound 8] | 0% | 0% | 0% | 0% | –
